Results taken from article PMC9490236, “Accurate de novo design of membrane-traversing macrocycles” (Cell, 2022).
Where a SMILES comes first, the peptide text is derived from it. [ ]: non-standard residue; d: D form. NMeF = CN[C@@H](Cc1ccccc1)C(=O)O; dNMeF = CN[C@H](Cc1ccccc1)C(=O)O; NMeL = CN[C@@H](CC(C)C)C(=O)O; dNMeL = CN[C@H](CC(C)C)C(=O)O; Nle = CCCC[C@H](N)C(=O)O; dNMeA = CN[C@H](C)C(=O)O; Sar = CNCC(=O)O

Experiments:
[1] = PAMPA
in vitro = details: PAMPA, PAMPA_Papp_Avg

| Molecule | PAMPA_R1 [1] | PAMPA_R3 [1] | Papp (in vitro) [×10⁻⁶ cm/s] | PAMPA_Papp_Avg [1] |
| --- | --- | --- | --- | --- |
| CC[C@H](C)[C@@H]1NC(=O)[C@@H]2CCCN2C(=O)CN(C)C(=O)[C@@H](CC(C)C)NC(=O)[C@@H](CC(C)C)N(C)C(=O)[C@@H]2CCCN2C(=O)[C@H](Cc2ccccc2)N(C)C(=O)[C@@H](Cc2ccccc2)NC1=O [Design D8.15, PRO ILE DPHE*PHE PRO *DLEU DLEU *GLY] (cyclo(I[dF][NMeF]P[dNMeL][dL][Sar]P)) | 8.94E-07 | 9.27E-07 | 0.768 | – |
| CC[C@@H](C)[C@H]1NC(=O)[C@H](C)NC(=O)[C@@H](CC(C)C)N(C)C(=O)[C@H](CC(C)C)N(C)C(=O)[C@H](C(C)C)NC(=O)[C@@H]2CCCN2C(=O)[C@@H](CC(C)C)N(C)C(=O)[C@@H](C)N(C)C(=O)[C@@H](Cc2ccccc2)NC(=O)[C@@H]2CCCN2C(=O)[C@H]2CCCN2C1=O [Design D11.6, VAL *LEU *DLEU ALA DILE DPRO PRO DPHE *DALA *DLEU PRO] (cyclo([dF][dNMeA][dNMeL]PV[NMeL][dNMeL]A[dI][dP]P)) | 1.24E-06 | 7.58E-07 | 0.949 | – |
| CC[C@@H](C)[C@H]1NC(=O)[C@H](CC(C)C)N(C)C(=O)[C@H]2CCCN2C(=O)[C@H](CC(C)C)NC(=O)[C@H](Cc2ccccc2)N(C)C(=O)CN(C)C(=O)[C@@H](C(C)C)NC(=O)[C@H](C)NC(=O)[C@H]2CCCN2C(=O)[C@@H]2CCCN2C1=O (single isomer, unassigned) [Design D10.58.p1, *GLY *PHE LEU DPRO *LEU DILE PRO DPRO ALA DVAL] | 3.35E-07 | 4.44E-07 | 0.376 | – |
| CC(C)C[C@@H]1NC(=O)[C@@H](CC(C)C)NC(=O)[C@H]2CCCN2C(=O)[C@@H]2CCCN2C(=O)[C@@H](CC(C)C)NC(=O)[C@@H](CC(C)C)N(C)C(=O)[C@@H]2CCCN2C1=O [Design D7.5, LEU PRO *DLEU DLEU PRO DPRO DLEU] (cyclo(LP[dNMeL][dL]P[dP][dL])) | 6.72e-06 cm/s | – | 6.64 | – |
| CC(C)C[C@H]1NC(=O)[C@@H]2CCCN2C(=O)[C@@H](C(C)C)NC(=O)[C@@H](C)N(C)C(=O)[C@@H](C(C)C)NC(=O)[C@@H]2CCCN2C(=O)[C@@H](Cc2ccccc2)NC(=O)[C@H](CC(C)C)N(C)C(=O)[C@@H](C(C)C)NC1=O [Design D9.5, PRO DVAL *DALA DVAL PRO DLEU DVAL *LEU DPHE] (cyclo([NMeL][dF]P[dV][dNMeA][dV]P[dL][dV])) | 3.32E-06 | 4.42E-06 | 3.51 | – |
| CC(C)C[C@@H]1C(=O)N(C)[C@H](CC(C)C)C(=O)N[C@H](CC(C)C)C(=O)N[C@@H](C(C)C)C(=O)N2CCC[C@@H]2C(=O)N2CCC[C@H]2C(=O)N[C@H](CC(C)C)C(=O)N[C@@H](C(C)C)C(=O)N1C [Design D8.23, DLEU VAL *DLEU *DLEU DLEU VAL DPRO PRO] (cyclo([dL]V[dNMeL][dNMeL][dL]V[dP]P)) | 1.18E-06 | 1.40E-06 | 1.28 | – |
| CC(C)C[C@@H]1NC(=O)[C@@H](CC(C)C)NC(=O)[C@@H](CC(C)C)N(C)C(=O)[C@@H](CC(C)C)N(C)C(=O)[C@H](C(C)C)NC(=O)[C@@H](C)N(C)C(=O)[C@@H]2CCCN2C(=O)[C@@H]2CCCN2C(=O)[C@@H](C)N(C)C1=O [Design D9.19, PRO *DALA VAL *DLEU *DLEU DLEU LEU *DALA PRO] (cyclo(L[dNMeA]PP[dNMeA]V[dNMeL][dNMeL][dL])) | 1.47E-06 | 1.16E-06 | 1.28 | – |
| CC[C@H](C)[C@@H]1NC(=O)[C@H]2CCCN2C(=O)[C@H](CC(C)C)N(C)C(=O)[C@H](CC(C)C)NC(=O)[C@H](C(C)C)NC(=O)[C@@H]2CCCN2C(=O)[C@H](CC(C)C)N(C)C(=O)[C@H](C(C)C)NC(=O)[C@@H](C(C)C)NC1=O [Design D9.39, DVAL VAL *LEU PRO VAL LEU *LEU DPRO ILE] (cyclo(I[dV]V[NMeL]PVL[NMeL][dP])) | 5.51E-07 | 2.78E-07 | 0.466 | – |
| CC[C@H](C)[C@@H]1NC(=O)CNC(=O)[C@@H]2CCCN2C(=O)[C@H]2CCCN2C(=O)[C@H]([C@@H](C)CC)NC(=O)[C@@H](C)N(C)C(=O)[C@@H]2CCCN2C(=O)[C@H](C(C)C)NC(=O)[C@@H](CC(C)C)NC1=O [Design D9.33, DPRO PRO GLY ILE DLEU VAL PRO *DALA ILE] (cyclo(GI[dL]VP[dNMeA]I[dP]P)) | 2.73E-07 | 4.74E-07 | 0.317 | – |
| CC[C@H](C)[C@@H]1NC(=O)[C@@H](C(C)C)NC(=O)[C@H](CC(C)C)N(C)C(=O)[C@H]2CCCN2C(=O)[C@H]2CCCN2C(=O)[C@H](C(C)C)NC(=O)[C@@H](CC(C)C)NC(=O)[C@H]2CCCN2C1=O [Design D8.16, DPRO DLEU VAL DPRO DPRO *LEU DVAL ILE] (cyclo(I[dP][dL]V[dP][dP][NMeL][dV])) | 2.86E-06 | 1.69E-06 | 2.16 | – |
| CC(C)C[C@@H]1NC(=O)[C@@H](C(C)C)NC(=O)[C@H](CC(C)C)N(C)C(=O)[C@H]2CCCN2C(=O)[C@@H](C(C)C)NC(=O)[C@H]2CCCN2C(=O)[C@@H](C(C)C)NC(=O)[C@@H](Cc2ccccc2)N(C)C(=O)[C@H](CC(C)C)N(C)C1=O (single isomer, unassigned) [Design D9.8.p1, *LEU DVAL LEU *LEU *DPHE DVAL DPRO DVAL DPRO] | 5.56E-06 | 6.18E-06 | – | 5.72E-06 |
| CC[C@H](C)[C@@H]1NC(=O)[C@@H](CC(C)C)NC(=O)[C@H](CC(C)C)NC(=O)[C@H]2CCCN2C(=O)[C@@H]2CCCN2C(=O)[C@H](C)NC(=O)[C@H](Cc2ccccc2)N(C)C(=O)[C@@H](C(C)C)NC(=O)[C@H](Cc2ccccc2)N(C)C(=O)[C@@H](Cc2ccccc2)N(C)C1=O [Design D10.51, ILE *DPHE *PHE DVAL *PHE ALA PRO DPRO LEU DLEU] (cyclo(AP[dP]L[dL]I[dNMeF][NMeF][dV][NMeF])) | BQL | BQL | – | BQL |
| PRO DPRO DALA DPHE DLEU ILE DPHE *DALA LEU PRO NLE [Design D11.14.p1] | BQL | BQL | – | BQL |
| CCCC[C@@H]1NC(=O)[C@H](CC(C)C)NC(=O)[C@@H]2CCCN2C(=O)[C@H]2CCCN2C(=O)[C@@H](C)NC(=O)[C@H]2CCCN2C(=O)[C@@H](CC(C)C)NC(=O)[C@@H](C)N(C)C(=O)[C@H](CC(C)C)N(C)C(=O)[C@@H](C)N(C)C1=O [Design D10.40, MET *DALA *LEU *DALA DLEU DPRO DALA DPRO PRO LEU] (cyclo(L[Nle][dNMeA][NMeL][dNMeA][dL][dP][dA][dP]P)) | 6.40E-07 | 6.95E-07 | – | 7.09E-07 |
| CC[C@@H](C)[C@H]1NC(=O)[C@@H](CC(C)C)N(C)C(=O)[C@H](CC(C)C)NC(=O)[C@@H](C(C)C)NC(=O)[C@@H]2CCCN2C(=O)[C@H]2CCCN2C(=O)[C@@H]([C@H](C)CC)NC(=O)[C@@H](C)N(C)C(=O)[C@@H]([C@H](C)CC)NC(=O)[C@H](Cc2ccccc2)N(C)C(=O)[C@H]2CCCN2C(=O)[C@@H](Cc2ccccc2)NC1=O [Design D12.7, DPHE DPRO *PHE DILE *DALA DILE DPRO PRO DVAL LEU *DLEU DILE] (cyclo([dV]L[dNMeL][dI][dF][dP][NMeF][dI][dNMeA][dI][dP]P)) | BQL | BQL | – | BQL |
